From patent US10925855B2, “Compositions comprising water dispersible nanoparticles of a retinoid compound” (GALDERMA RESEARCH & DEVELOPMENT, priority 2015, dated 2021)

Experiments:
Precipitation test = type: physicochemical; conditions: every tested organic solvent at 1 mg/mL concentration
Method: 1 mg/ml solutions of compound A were prepared in each appropriate solvent.

[1] = Stabilizer screening (colloid stability after precipitation); type: physicochemical; conditions: Compound A 1.0 mg
Method: If the colloid solution was stable over 2 hours (no aggregation, sedimentation, crystal forming), and no aggregation occurred, the sample was lyophilized. • If precipitation occurred, however the colloid solution was not stable over the whole solid formulation procedure, other stabilizers were tested. Results

For CC(C)(C)c1cc(-c2cc(-c3ccc(C(=O)O)cc3)ccc2OCCO)ccc1N1CCCC1 [Compound A, 3″-tert-butyl-4′-(2-hydroxyethoxy)-4″-pyrrolidin-1-yl[1,1′;3′,1″]-terphenyl-4-carboxylic acid], the “precipitation on addition of anti-solvent” value (Precipitation test) was “precipitated”, the Observation ([1]; 2 mg Klucel EF, 1 mL EtOH, 4 mL water) was “Aggregated” and the Observation ([1]; 2 mg Klucel EF, 1 mL IPA, 4 mL water) was “Aggregated”. For the same compound, the Observation ([1]; 2 mg Klucel EF, 1 mL MeOH, 4 mL water) was “Aggregated”, the Observation ([1]; 2 mg Klucel EF, 1 mL THF, 4 mL water) was “Aggregated” and the Observation ([1]; 2 mg Klucel LF, 1 mL EtOH, 4 mL water) was “Aggregated”. The Observation ([1]; 2 mg Klucel LF, 1 mL IPA, 4 mL water) was “Aggregated”, the Observation ([1]; 2 mg Klucel LF, 1 mL MeOH, 4 mL water) was “Aggregated” and the Observation ([1]; 2 mg Klucel LF, 1 mL THF, 4 mL water) was “Aggregated”. The Observation ([1]; 2 mg Lutrol F 127, 1 mL ACE, 4 mL water) was “Aggregated immediately”, the Observation ([1]; 2 mg Lutrol F 127, 1 mL EtOH, 4 mL water) was “Aggregated” and the Observation ([1]; 2 mg Lutrol F 127, 1 mL MeOH, 4 mL water) was “Cloudy immediately”. The Observation ([1]; 2 mg Lutrol F 127, 1 mL THF, 5 mL water) was “Aggregated”, the “Observation: Aggregated within” value ([1]; 2 mg Luviskol VA64, 1 mL ACE, 4 mL water) was “Aggregated within 5 min” and the “Observation: Colloid, Stable for” value ([1]; 2 mg Luviskol VA64, 1 mL EtOH, 4 mL water) was “Colloid, Stable for 30 min”. For the same compound, the Observation ([1]; 2 mg Luviskol VA64, 1 mL EtOH, 7 mL 0.05 mg/mL BAC solution) was “Aggregated immediately”, the Observation ([1]; 2 mg Luviskol VA64, 1 mL EtOH, 7 mL 0.05 mg/mL DSS solution) was “Aggregated immediately” and the Observation ([1]; 2 mg Luviskol VA64, 1 mL EtOH, 7 mL 0.05 mg/mL Mannitol solution) was “Aggregated immediately”. For the same compound, the Observation ([1]; 2 mg Luviskol VA64, 1 mL EtOH, 7 mL 0.05 mg/mL NaOAc solution) was “Aggregated immediately”, the Observation ([1]; 2 mg Luviskol VA64, 1 mL EtOH, 7 mL 0.05 mg/mL SDS solution) was “Aggregated immediately” and the Observation ([1]; 2 mg Luviskol VA64, 1 mL EtOH, 7 mL 0.05 mg/mL citric acid solution) was “Aggregated immediately”. The Observation ([1]; 2 mg Luviskol VA64, 1 mL EtOH, 7 mL 0.5 mg/mL BAC solution) was “Aggregated immediately”, the “Observation: Aggregated within” value ([1]; 2 mg Luviskol VA64, 1 mL EtOH, 7 mL 0.5 mg/mL DSS solution) was “Aggregated within 1 hour” and the Observation ([1]; 2 mg Luviskol VA64, 1 mL EtOH, 7 mL 0.5 mg/mL Mannitol solution) was “Aggregated immediately”. The “Observation: Stable for” value ([1]; 2 mg Luviskol VA64, 1 mL EtOH, 7 mL 0.5 mg/mL NaOAc solution, at RT) was “Stable for 1 day at RT”, the “Observation: Aggregated within” value ([1]; 2 mg Luviskol VA64, 1 mL EtOH, 7 mL 0.5 mg/mL SDS solution) was “Aggregated within 1 hour” and the Observation ([1]; 2 mg Luviskol VA64, 1 mL EtOH, 7 mL 0.5 mg/mL citric acid solution) was “Aggregated immediately”. The Observation ([1]; 2 mg Luviskol VA64, 1 mL IPA, 4 mL water) was “Aggregated”, the “Observation: Aggregated after” value ([1]; 2 mg Luviskol VA64, 1 mL MeOH, 4 mL water) was “Aggregated after 25 min” and the Observation ([1]; 2 mg Luviskol VA64, 1 mL THF, 4 mL water) was “Aggregated”. The Observation ([1]; 2 mg PEG2000, 1 mL ACE, 4 mL water) was “Aggregated immediately”, the Observation ([1]; 2 mg PEG2000, 1 mL EtOH, 4 mL water) was “Aggregated” and the Observation ([1]; 2 mg PEG2000, 1 mL IPA, 4 mL water) was “Aggregated”. For the same compound, the Observation ([1]; 2 mg PEG2000, 1 mL MeOH, 4 mL water) was “Aggregated”, the Observation ([1]; 2 mg PEG2000, 1 mL THF, 4 mL water) was “Aggregated” and the Observation ([1]; 2 mg PEG6000, 1 mL ACE, 4 mL water) was “Aggregated immediately”. For the same compound, the Observation ([1]; 2 mg PEG6000, 1 mL EtOH, 4 mL water) was “Aggregated”, the Observation ([1]; 2 mg PEG6000, 1 mL MeOH, 4 mL water) was “Aggregated” and the “Observation: Aggregated within” value ([1]; 2 mg PEOX50, 1 mL ACE, 4 mL water) was “Aggregated within 5 min”. For the same compound, the “Observation: Colloid, Stable for” value ([1]; 2 mg PEOX50, 1 mL EtOH, 4 mL water) was “Colloid, Stable for 10 min”, the “Observation: Aggregated within” value ([1]; 2 mg PEOX50, 1 mL EtOH, 7 mL 0.5 mg/mL DSS solution) was “Aggregated within 1 hour” and the “Observation: Aggregated within” value ([1]; 2 mg PEOX50, 1 mL EtOH, 7 mL 0.5 mg/mL NaOAc solution) was “Aggregated within 1 hour”. For the same compound, the “Observation: Aggregated within” value ([1]; 2 mg PEOX50, 1 mL EtOH, 7 mL 0.5 mg/mL SDS solution) was “Aggregated within 1 hour”, the Observation ([1]; 2 mg PEOX50, 1 mL EtOH, 7 mL 0.5 mg/mL citric acid solution) was “Aggregated immediately” and the Observation ([1]; 2 mg PEOX50, 1 mL IPA, 4 mL water) was “Aggregated”. For the same compound, the Observation ([1]; 2 mg PEOX50, 1 mL MeOH, 4 mL water) was “Aggregated”, the Observation ([1]; 2 mg PEOX50, 1 mL THF, 4 mL water) was “Aggregated” and the “Observation: Aggregated within” value ([1]; 2 mg PEOX500, 1 mL ACE, 4 mL water) was “Aggregated within 5 min”. The Observation ([1]; 2 mg PEOX500, 1 mL EtOH, 4 mL water) was “Aggregated”, the Observation ([1]; 2 mg PEOX500, 1 mL IPA, 4 mL water) was “Aggregated” and the Observation ([1]; 2 mg PEOX500, 1 mL MeOH, 4 mL water) was “Aggregated”. The Observation ([1]; 2 mg PEOX500, 1 mL THF, 4 mL water) was “Aggregated”, the Observation ([1]; 2 mg PMAMVE, 1 mL EtOH, 4 mL water) was “Aggregated” and the Observation ([1]; 2 mg PMAMVE, 1 mL MeOH, 4 mL water) was “Aggregated”. The “Observation: Colloid, Stable for” value ([1]; 2 mg PVP10, 1 mL EtOH, 4 mL water) was “Colloid, Stable for 30 min”, the Observation ([1]; 2 mg PVP10, 1 mL EtOH, 7 mL 0.05 mg/mL BAC solution) was “Aggregated immediately” and the Observation ([1]; 2 mg PVP10, 1 mL EtOH, 7 mL 0.05 mg/mL DSS solution) was “Aggregated immediately”. The Observation ([1]; 2 mg PVP10, 1 mL EtOH, 7 mL 0.05 mg/mL Mannitol solution) was “Aggregated immediately”, the Observation ([1]; 2 mg PVP10, 1 mL EtOH, 7 mL 0.05 mg/mL NaOAc solution) was “Aggregated immediately” and the Observation ([1]; 2 mg PVP10, 1 mL EtOH, 7 mL 0.05 mg/mL SDS solution) was “Aggregated immediately”. The Observation ([1]; 2 mg PVP10, 1 mL EtOH, 7 mL 0.05 mg/mL citric acid solution) was “Aggregated immediately”, the Observation ([1]; 2 mg PVP10, 1 mL EtOH, 7 mL 0.5 mg/mL BAC solution) was “Aggregated immediately” and the “Observation: Aggregated within” value ([1]; 2 mg PVP10, 1 mL EtOH, 7 mL 0.5 mg/mL DSS solution) was “Aggregated within 1 hour”. For the same compound, the Observation ([1]; 2 mg PVP10, 1 mL EtOH, 7 mL 0.5 mg/mL Mannitol solution) was “Aggregated immediately”, the Observation ([1]; 2 mg PVP10, 1 mL EtOH, 7 mL 0.5 mg/mL NaOAc solution) was “Aggregated immediately” and the “Observation: Aggregated within” value ([1]; 2 mg PVP10, 1 mL EtOH, 7 mL 0.5 mg/mL SDS solution) was “Aggregated within 1 hour”. The Observation ([1]; 2 mg PVP10, 1 mL IPA, 4 mL water) was “Aggregated”, the Observation ([1]; 2 mg PVP10, 1 mL MeOH, 4 mL water) was “Precipitation did not occur” and the “Observation: Colloid, Stable for” value ([1]; 2 mg PVP40, 1 mL EtOH, 4 mL water) was “Colloid, Stable for 15 min”.
